Measured values as given in patent US20180104240A1, “AMELIORATION OF RADIATION-INDUCED COGNITIVE DYSFUNCTION” (NEURALSTEM, INC., priority 2016, published 2018).

Key:
Format in all cases: in vivo, rat
[1] = tested on: proliferating (BrdU+) cells present in the hippocampal dentate gyrus; experiment: Neurogenesis: BrdU and BrdU/NeuN immunohistochemical labeling after head-only irradiation; details: irradiated rats, 30 mg/kg oral, 30 days
Experimental: (§1) Ten (10) week old Long Evans (LE) rats (Crl:LE, Strain Code: 006; Charles River) were divided randomly into three groups (n=16/group):
(§2) Radiation recipients having administered drug (IRR+NSI-189) received the compound of formula (2) wherein R^1=amyl as the phosphate salt by oral gavage. Drug was administered at 30 mg/kg (amount based exclusive of phosphate) and 27 Gy head-only fractionated radiation administered as in the IRR group. Rats in this group were administered NSI-189 in sterile vehicle (normal saline) as a 1× solution (15 mg/ml) starting 24 hours after the final dose of radiation and daily thereafter for 30 days. Sterile gavage needles with protected tips were used and the drug administered for less than a minute.
For IRR and IRR+NSI-189, rats were anesthetized [2.5% (vol/vol) isoflurane/oxygen], placed ventrally on the treatment table (X-RAD 320 irradiator; Precision X-Ray) without restraint, and positioned under a collimated (1.0 cm^2 diameter) beam for head-only radiation delivered at a dose rate of 1.0 Gy/min. Fractionation of 27 Gy was delivered over 3 separate doses of […] that were administered 48 hours apart. […]
Remaining animals that were not used for Golgi-Cox staining (n=12/group) were given a barbiturate overdose and were perfused/fixated using 4% paraformaldehyde and tissue removed. Tissue was analyzed by immunohistochemistry.

Long Evans (LE) rats [2] = experiment: Novel Object Recognition (NOR) spontaneous exploration task after head-only irradiation
Description: as §1
(§3) Controls (Con) received oral gavage (vehicle only) and sham radiation.
(§4) Radiation recipients with no drug (IRR) administered oral gavage (vehicle only) and 27 Gy head-only fractionated radiation.
as §2, with “minute. […]” for “minute.”
(§5) Rats were subjected to cognitive testing using spontaneous exploration tasks outlined below 1 week after termination of oral gavage (5 weeks post irradiation) over the course of 3 weeks. […] All data were collected using Noldus Ethovision v8.5 and later hand scored by a technician blind to the treatment groups. […]

Long Evans (LE) rats [3] = experiment: Novel Place Recognition (NPR) spontaneous exploration task after head-only irradiation
Description: as §1, §3, §4
as §2, with “minute. […]” for “minute.”
as §5

Long Evans (LE) rats [4] = experiment: Object in Place (OiP) spontaneous exploration task after head-only irradiation
Description: as §1, §3, §4
as §2, with “minute. […]” for “minute.”
as §5

Long Evans (LE) rats [5] = experiment: Temporal Order (TO) spontaneous exploration task after head-only irradiation
Description: as §1, §3, §4
as §2, with “minute. […]” for “minute.”
as §5

[6] = IRR lower than IRR+NSI-189 (P<0.05), 30 mg/kg oral, 30 days, 27 Gy

CC(C)CCNc1ncccc1C(=O)N1CCN(Cc2ccccc2)CC1 [NSI-189]
yield of BrdU+/NeuN+ cells (mature neurons) in the hippocampal dentate gyrus ([1]; dual immunohistochemical labeling): returned the yield of BrdU^+/NeuN^+ cells to pre-irradiation levels
number of proliferating (BrdU+) cells in the hippocampal dentate gyrus ([1]; radiation alone gave significant (P<0.05) reduction): returned to pre-irradiation levels
NOR exploration ratio of IRR+NSI-189 compared with Con (statistics, in words) (Long Evans (LE) rats [2]; IRR lower than IRR+NSI-189 (P<0.01), 30 mg/kg oral, 30 days, 27 Gy): statistically indistinguishable
Exploration Ratio mean (NOR) (Long Evans (LE) rats [2]; rats, 27 Gy head-only fractionated radiation, 30 mg/kg oral gavage daily for 30 days, 5 min retention interval): mean = 71.28
NPR exploration ratio of IRR+NSI-189 compared with Con (statistics, in words) (Long Evans (LE) rats [3]; [6]): did not differ significantly from Con
Exploration Ratio mean (NPR) (Long Evans (LE) rats [3]; rats, 27 Gy head-only fractionated radiation, 30 mg/kg oral gavage daily for 30 days starting 24 hours after final radiation dose, tested 5 weeks post irradiation, 1 hour retention): mean = 60.69
OiP exploration ratio of IRR+NSI-189 compared with Con (statistics, in words) (Long Evans (LE) rats [4]; [6]): showed no significant differences
Exploration Ratio mean (OiP) (Long Evans (LE) rats [4]; rats, 27 Gy head-only fractionated radiation, 30 mg/kg oral gavage daily for 30 days): mean = 64.60
TO exploration ratio of IRR+NSI-189 compared with Con (statistics, in words) (Long Evans (LE) rats [5]; 30 mg/kg oral, 30 days, 27 Gy): did not differ statistically
Exploration Ratio mean (TO) (Long Evans (LE) rats [5]; rats, 27 Gy head-only fractionated radiation, 30 mg/kg oral gavage daily for 30 days, object sets 3 hours apart, test after additional 1 hour): mean = 67.95
